According to PubChem BioAssay AID248 (DTP/NCI, 2004):
Several values for one entry are separate records, joined by “and”; a condition that tells them apart may be missing. Identical values can stand only once. Toxic doses and inconclusive results are not listed. Cut-off read from the data, not from the text of the source: active = T/C of 150% or more; inactive = T/C below 125%.

Test system: L1210 leukemia ip in BDF1 mice, survival T/C
Assay: NCI In Vivo Anticancer Drug Screen. Data for tumor model L1210 Leukemia (intraperitoneal) in B6D2F1 (BDF1) mice
Conditions: endpoint: mean survival time, higher = longer survival
Procedure, shortened: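 Mice bearing the transplanted tumor received compound or vehicle. Survival of the treated group was divided by that of the vehicle-treated control group to give the ratio.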

[1] = dose: 100.0 mg/kg/injection, schedule: Q01DX001 (ip), vehicle: saline
[2] = dose: 100.0 mg/kg/injection, schedule: Q01DX009 (ip), vehicle: saline
[3] = dose: 200.0 mg/kg/injection, schedule: Q01DX001 (ip), vehicle: saline
[4] = dose: 200.0 mg/kg/injection, schedule: Q01DX009 (ip), vehicle: saline
[5] = dose: 400.0 mg/kg/injection, schedule: Q01DX001 (ip), vehicle: saline
[6] = dose: 400.0 mg/kg/injection, schedule: Q01DX009 (ip), vehicle: saline
[7] = dose: 100.0 mg/kg/injection, schedule: Q01DX001 (ip), vehicle: Klucel (hydroxypropylcellulose) (HPC)
[8] = dose: 100.0 mg/kg/injection, schedule: Q04DX003 (ip), vehicle: Klucel (hydroxypropylcellulose) (HPC)
[9] = dose: 200.0 mg/kg/injection, schedule: Q01DX001 (ip), vehicle: Klucel (hydroxypropylcellulose) (HPC)
[10] = dose: 200.0 mg/kg/injection, schedule: Q04DX003 (ip), vehicle: Klucel (hydroxypropylcellulose) (HPC)
[11] = dose: 400.0 mg/kg/injection, schedule: Q01DX001 (ip), vehicle: Klucel (hydroxypropylcellulose) (HPC)
[12] = dose: 400.0 mg/kg/injection, schedule: Q04DX003 (ip), vehicle: Klucel (hydroxypropylcellulose) (HPC)
[13] = dose: 100.0 mg/kg/injection, schedule: Q04DX002 (ip), vehicle: Klucel (hydroxypropylcellulose) (HPC)
[14] = dose: 200.0 mg/kg/injection, schedule: Q04DX002 (ip), vehicle: Klucel (hydroxypropylcellulose) (HPC)
[15] = dose: 400.0 mg/kg/injection, schedule: Q04DX002 (ip), vehicle: Klucel (hydroxypropylcellulose) (HPC)
[16] = dose: 100.0 mg/kg/injection, schedule: Q01DX009 (ip), vehicle: Klucel (hydroxypropylcellulose) (HPC)
[17] = dose: 200.0 mg/kg/injection, schedule: Q01DX009 (ip), vehicle: Klucel (hydroxypropylcellulose) (HPC)
[18] = dose: 400.0 mg/kg/injection, schedule: Q01DX009 (ip), vehicle: Klucel (hydroxypropylcellulose) (HPC)
[19] = dose: 100.0 mg/kg/injection, schedule: Q04DX003 (ip), vehicle: saline
[20] = dose: 200.0 mg/kg/injection, schedule: Q04DX003 (ip), vehicle: saline
[21] = dose: 400.0 mg/kg/injection, schedule: Q04DX003 (ip), vehicle: saline

Measured: T/C

CCN1CC(C)(C)N(C(=O)c2ccccc2)CC1(C)C
inactive: dose: 5.0 mg/kg/injection, schedule: Q01DX001 (ip), vehicle: carboxymethylcellulose (CMC) 98 % of control | dose: 10.0 mg/kg/injection, schedule: Q01DX001 (ip), vehicle: carboxymethylcellulose (CMC) 106 % of control | dose: 20.0 mg/kg/injection, schedule: Q01DX001 (ip), vehicle: carboxymethylcellulose (CMC) 95 % of control | dose: 40.0 mg/kg/injection, schedule: Q01DX001 (ip), vehicle: carboxymethylcellulose (CMC) 109 % of control | dose: 80.0 mg/kg/injection, schedule: Q01DX001 (ip), vehicle: carboxymethylcellulose (CMC) 98 % of control

Nc1ccccc1C1OCCO1
inactive: dose: 50.0 mg/kg/injection, schedule: Q01DX001 (ip), vehicle: carboxymethylcellulose (CMC) 95 % of control | dose: 100.0 mg/kg/injection, schedule: Q01DX001 (ip), vehicle: carboxymethylcellulose (CMC) 95 % of control | dose: 200.0 mg/kg/injection, schedule: Q01DX001 (ip), vehicle: carboxymethylcellulose (CMC) 95 % of control | dose: 400.0 mg/kg/injection, schedule: Q01DX001 (ip), vehicle: carboxymethylcellulose (CMC) 101 % of control

CC(C)(C)c1ccc(P(=O)(O)C(C)(C)C)cc1
inactive: dose: 75.0 mg/kg/injection, schedule: Q01DX001 (ip), vehicle: saline 96 % of control | dose: 150.0 mg/kg/injection, schedule: Q01DX001 (ip), vehicle: saline 102 % of control

Cc1ccccc1S(=O)(=O)CC(Cl)c1ccccc1 (stereo not drawn)
inactive: [1] 102 % of control | [2] 93 % of control | [3] 102 % of control | [4] 91 % of control | [5] 107 % of control | [6] 91 % of control

NC(=O)Cc1ccc2c(c1)[nH]c1ccccc12
inactive: [7] 96 % of control | [8] 102 % of control | [9] 94 % of control | [10] 105 % of control | [11] 100 % of control | [12] 103 % of control

O=C1CC(c2ccccc2)=CN1c1ccc(Cl)cc1
inactive: [13] 89 % of control | [14] 104 % of control | [15] 112 % of control

COC(=O)c1ccc(Cl)cc1[N+](=O)[O-]
inactive: [2] 101 % of control | [4] 100 % of control | [6] 100 % of control

C(=NCC(CCN1CCCCC1)(CCN1CCCCC1)c1cccc2ccccc12)C(CCN1CCCCC1)(CCN1CCCCC1)c1cccc2ccccc12
inactive: dose: 5.0 mg/kg/injection, schedule: Q04DX003 (ip), vehicle: Klucel (hydroxypropylcellulose) (HPC) 119 % of control | dose: 10.0 mg/kg/injection, schedule: Q04DX003 (ip), vehicle: Klucel (hydroxypropylcellulose) (HPC) 114 % of control | dose: 20.0 mg/kg/injection, schedule: Q04DX003 (ip), vehicle: Klucel (hydroxypropylcellulose) (HPC) 110 % of control

CNC(=O)Nc1cc(OC)ccc1OC
inactive: [16] 106 % of control | [17] 98 % of control | [18] 107 % of control

CCN(CC)c1ccc(NC(=S)Nc2cccc(C(F)(F)F)c2)c(C)c1
inactive: [16] 93 % of control | [17] 90 % of control

CN(C)C(=S)Oc1ccc(C(C)(C)C)cc1
inactive: [7] 96 % of control | [9] 98 % of control | [11] 90 % of control

Nc1ccc2nc(N)nc(N)c2c1
inactive: dose: 37.5 mg/kg/injection, schedule: Q01DX009 (ip), vehicle: Klucel (hydroxypropylcellulose) (HPC) 121 % of control | dose: 65.0 mg/kg/injection, schedule: Q04DX003 (ip), vehicle: Klucel (hydroxypropylcellulose) (HPC) 106 % of control | dose: 75.0 mg/kg/injection, schedule: Q01DX009 (ip), vehicle: Klucel (hydroxypropylcellulose) (HPC) 107 % of control | [8] 112 % of control | dose: 150.0 mg/kg/injection, schedule: Q04DX003 (ip), vehicle: Klucel (hydroxypropylcellulose) (HPC) 112 % of control

O=C(Nc1ccc(F)cc1)Oc1ccccn1
inactive: [7] 101 % of control | [16] 95 % of control | [13] 94 % of control and 100 % of control | [8] 101 % of control | [9] 104 % of control | [17] 101 % of control and 87 % of control | [14] 94 % of control and 97 % of control | [10] 103 % of control | [11] 93 % of control | [18] 95 % of control and 96 % of control | [15] 94 % of control and 97 % of control | [12] 105 % of control

CCOC=Nc1c(N)ncnc1Cl
inactive: dose: 125.0 mg/kg/injection, schedule: Q01DX Z (ip), vehicle: other 93 % of control | dose: 250.0 mg/kg/injection, schedule: Q01DX Z (ip), vehicle: other 93 % of control | dose: 500.0 mg/kg/injection, schedule: Q01DX Z (ip), vehicle: other 103 % of control

CCOP(=O)(NC1C2CCC(C2)C1C)OCC (stereo not drawn)
inactive: [3] 98 % of control | [5] 102 % of control

C=COC(=O)N1CCCC1C(=O)O (stereo not drawn)
inactive: [1] 92 % of control | [3] 94 % of control | [5] 90 % of control

CCOC(C#Cc1ccccc1)OCC
inactive: [19] 105 % of control | [20] 114 % of control | [21] 95 % of control

c1ccc2c(Cc3c4ccccc4cc4ccccc34)c3ccccc3cc2c1
inactive: dose: 25.0 mg/kg/injection, schedule: Q04DX002 (ip), vehicle: Klucel (hydroxypropylcellulose) (HPC) 94 % of control | dose: 50.0 mg/kg/injection, schedule: Q04DX002 (ip), vehicle: Klucel (hydroxypropylcellulose) (HPC) 97 % of control | [13] 90 % of control

CC(C)OP(=S)(S)OC(C)C
inactive: [19] 112 % of control | [20] 96 % of control | [21] 102 % of control

C/C(=N/N(C)C)c1cccc(N)c1
inactive: [1] 98 % of control | [3] 93 % of control | [5] 101 % of control

O=C(Cc1ccccc1)NCc1ccco1
inactive: dose: 25.0 mg/kg/injection, schedule: Q01DX009 (ip), vehicle: Klucel (hydroxypropylcellulose) (HPC) 100 % of control | dose: 50.0 mg/kg/injection, schedule: Q01DX009 (ip), vehicle: Klucel (hydroxypropylcellulose) (HPC) 94 % of control | [13] 90 % of control

COC(=O)C1=C(C(=O)OC)[N+](C)(C)N=C1[O-]
inactive: dose: 25.0 mg/kg/injection, schedule: Q04DX003 (ip), vehicle: saline 110 % of control | dose: 50.0 mg/kg/injection, schedule: Q04DX003 (ip), vehicle: saline 104 % of control | [19] 95 % of control and 101 % of control

Cc1cn([C@@H]2C[C@H](CO)[C@@H](O)C2)c(=O)[nH]c1=O
inactive: [1] 105 % of control | [3] 110 % of control | [5] 107 % of control

CCC/C=C(\C)CCCCCCCCC (tested in a mixture with another compound)
inactive: dose: 100.0 mg/kg/injection, schedule: Q04DX003 (ip), vehicle: saline with Tween-80 98 % of control | dose: 200.0 mg/kg/injection, schedule: Q04DX003 (ip), vehicle: saline with Tween-80 101 % of control | dose: 400.0 mg/kg/injection, schedule: Q04DX003 (ip), vehicle: saline with Tween-80 106 % of control

BrC1(Br)C2CCCCC21 (stereo not drawn)
inactive: dose: 100.0 mg/kg/injection, schedule: Q04DX003 (ip), vehicle: acetone 90 % of control | dose: 200.0 mg/kg/injection, schedule: Q04DX003 (ip), vehicle: acetone 98 % of control and 90 % of control

O=c1nc2n(CCC[N+](=O)[O-])c3ccccc3nc-2c(=O)[nH]1
inactive: [1] 102 % of control | [19] 88 % of control | [3] 98 % of control | [20] 96 % of control | [5] 102 % of control | [21] 115 % of control

CCC(NC)c1ccccc1 (stereo not drawn)
inactive: dose: 25.0 mg/kg/injection, schedule: Q04DX002 (ip), vehicle: saline 104 % of control | dose: 50.0 mg/kg/injection, schedule: Q04DX002 (ip), vehicle: saline 89 % of control | dose: 100.0 mg/kg/injection, schedule: Q04DX002 (ip), vehicle: saline 106 % of control

Cc1ccc(CNC(=O)Nc2cccc(C(F)(F)F)c2)cc1C
inactive: dose: 100.0 mg/kg/injection, schedule: Q01DX009 (ip), vehicle: gum acacia 89 % of control | dose: 200.0 mg/kg/injection, schedule: Q01DX009 (ip), vehicle: gum acacia 89 % of control

Cc1ccc(C(=O)c2ccc3c4c(cccc24)CC3)cc1
inactive: [8] 112 % of control | [10] 88 % of control | [12] 100 % of control

C=CC[N+](C)([O-])c1ccc(C(=O)OC)cc1 (stereo not drawn)
inactive: [1] 107 % of control | [3] 102 % of control | [5] 96 % of control
